Results published in ChEMBL document CHEMBL1151148, “Antitumor agents, 112. Emarginatine B, a novel potent cytotoxic sesquiterpene pyridine alkaloid from Maytenus emarginata” (1990).
Values after ≈ are worked out from the molar mass of the structure shown.

System: KB
Test: Cytotoxicity against human KB cells
Assay type: functional
Details: read-out: ED50 (the source's name)

Compound | EC50 [µg/mL]
CC(=O)OC[C@]12[C@H](OC(=O)c3ccccc3)[C@@H](OC(C)=O)[C@@H]3[C@@H](OC(C)=O)[C@@]14O[C@@]3(C)COC(=O)c1cccnc1[C@H](C)[C@H](C)C(=O)O[C@@H]([C@H](OC(=O)c1ccc(=O)n(C)c1)[C@@H]2OC(C)=O)[C@@]4(C)O [EMARGINATINE B] | 0.4 (≈ 0.416 µM)
CC(=O)OC[C@]12[C@H](OC(C)=O)[C@H](OC(C)=O)[C@@H]3[C@@H](OC(C)=O)[C@@]14O[C@@]3(C)COC(=O)c1cccnc1[C@H](C)[C@H](C)C(=O)O[C@@H]([C@H](OC(=O)c1ccc(=O)n(C)c1)[C@@H]2OC(C)=O)[C@@]4(C)O [EMARGINATINE A] | 4 (≈ 4.45 µM)
